# Assay results taken from publication PMC7785802, “Therapeutic Efficacy of a Trichinella Spiralis Paramyosin-Derived Peptide Modified With a Membrane-Targeting Signal in Mice With Antigen-Induced Arthritis” (Frontiers in Microbiology, 2020).
# System: mouse ATDC5 cells
# Experiment: Peptide binding to cell surface, confocal laser scanning microscopy
# Assay type: cell-based
# Details: biotin-labeled peptide 260 nmol, 540 nmol, 1.08 mmol; streptavidin-FITC, DAPI
# Description: The mouse ATDC5 chondrogenic cell line is an important chondrocyte model that has been widely used in the study of chondrocyte proliferation and differentiation. This cell line was used to evaluate the membrane-binding ability of the modified peptide, as articular cartilage (which contains chondrocytes) is one of the main cellular components in the joint cavity. The cells were purchased from Guangzhou Jennio Biotech Co., Ltd. (Guangzhou, China) and maintained in Dulbecco's Modified Eagle Medium (DMEM, ThermoFisher, America) supplemented with 10% fetal bovine serum (FBS, Gibco, Australia) at 37°C in a humidified atmosphere with 5% CO2. The 5th−10th passages of the cells were used in the study.
# To assess the binding ability of the modified peptide to the cell membrane, the three peptides were labeled with biotin at the C-terminus. […] The cells were washed and resuspended in PBS and then the binding of the peptides to the cell membrane was assessed by flow cytometry (BD Biosciences, California, USA). […] The binding of the peptides to the cell membrane was then assessed by staining with streptavidin-FITC (eBioscience). […] They were then analyzed by confocal laser scanning microscopy (Leica, Germany).
# Figure 3 Modified peptide non-specifically bound to the cell surface. (A) Binding of peptides to the surface of mouse ATDC5 cells measured by flow cytometry. […]
substance,measurement,value
"Myr-GSSKSPSKKKKKKPG-ACP-VSMGKSLSSKVYVM [modified peptide, Ts-pmy-derived peptide modified with a membrane-targeting signal]",binding to surface of ATDC5 cells (confocal microscopy),could bind to the surface of mouse ATDC5 cells
